Measured values reported in patent publication US12661345B2, “Compositions for the treatment of hypertension” (The George Institute for Global Health, priority 2017, dated 2026).

Tested on: participants with migraine
Assay: Office blood pressure in 12-week double blind randomized 3×3 factorial trial
Assay type: in vivo, human
Description: There was a 4 week screening period and another 4-week post study drug observational period.
There was a 4-week screening period and another 4-week post study drug observational period.
Group 2 received the low-dose BP lowering combination and simvastatin (i.e., telmisartan 20 mg+amlodipine 2.5 mg+simvastatin). Group 3 received the low-dose BP lowering combination and placebo (i.e., telmisartan 20 mg+amlodipine 2.5 mg+placebo). […] Group 9 received double placebo.
Office BP was measured following the recommendations of the Australian National Heart Foundation. Participants were rested in the seated position for 5 minutes, an appropriate cuff size was selected and 3 measurements of BP were recorded using an Omron HEM907 monitor or equivalent validated automated digital BP monitor. Principles of automated office BP measurements were applied whereby the patient was left alone during BP recording.
All analyses of study outcomes were conducted according to the principle of intention-to-treat. The analyses of continuous outcomes such SBP and LDL-cholesterol at 12 weeks was performed using ANCOVA including the treatment arm and baseline values as a covariate. Additional analyses included interim measurements in a longitudinal model including treatment arm, visit, and treatment by visit interaction as well as the baseline measurement. Within-patient correlations were modelled using generalized estimating equations. A similar approach was applied to binary endpoints with log-binomial regression used in place of linear regression. There were also pre-defined subgroup analyses, baseline BP, baseline LDL, gender and age.

[1] = Week 12, BP arm versus placebo, interval in brackets
[2] = Week 16 (after 4-week post study drug period)
[3] = Week 16, BP arm versus placebo, interval in brackets
[4] = overall line, BP arm versus placebo, interval in brackets, footnote # not given

**Q.** What does the source list for `CC(C)NCC(O)COc1cccc2ccccc12` (stereo not shown) [Propranolol, propranolol]?
**A.** Diastolic Blood Pressure Mean difference (Week 8, BP arm versus placebo, interval in brackets): −3.67 (−10.23, 2.90) mmHg; Diastolic Blood Pressure, Change from Baseline, Mean difference (Week 8, interval in brackets): −7.67 (−12.92, −2.41); Systolic Blood Pressure, Change from Baseline, Mean difference (Week 8, interval in brackets): −7.30 (−17.13, 2.53); Diastolic Blood Pressure, Change from Baseline, Mean (SD) (Week 12): 10 −10.5 (6.44); Diastolic Blood Pressure, Change from Baseline, Q1 (Week 12): −16.7; Diastolic Blood Pressure, Change from Baseline, Q2 (Week 12): −9.3; Diastolic Blood Pressure, Change from Baseline, Q3 (Week 12): −4.3; Diastolic Blood Pressure, Change from Baseline, max (Week 12): −3; Diastolic Blood Pressure, Change from Baseline, min (Week 12): −22; Systolic Blood Pressure, Change from Baseline, Mean (SD) (Week 12): 10 −10.9 (10.07); Systolic Blood Pressure, Change from Baseline, Q1 (Week 12): −17.0; Systolic Blood Pressure, Change from Baseline, Q2 (Week 12): −12.8; Systolic Blood Pressure, Change from Baseline, Q3 (Week 12): −4.0; Systolic Blood Pressure, Change from Baseline, max (Week 12): 5; Systolic Blood Pressure, Change from Baseline, min (Week 12): −30; Diastolic Blood Pressure Mean (SD) (Week 12 (end of treatment)): 10 74.6 (15.07) mmHg; Diastolic Blood Pressure Q1 (Week 12 (end of treatment)): 60.7 mmHg; Diastolic Blood Pressure Q2 (Week 12 (end of treatment)): 70.0 mmHg; Diastolic Blood Pressure Q3 (Week 12 (end of treatment)): 85.7 mmHg; Diastolic Blood Pressure max (Week 12 (end of treatment)): 97 mmHg; Diastolic Blood Pressure min (Week 12 (end of treatment)): 54 mmHg; Systolic Blood Pressure Mean (SD) (Week 12 (end of treatment)): 10 119.5 (17.83) mmHg; Systolic Blood Pressure Q2 (Week 12 (end of treatment)): 117.5 mmHg; Systolic Blood Pressure Q3 (Week 12 (end of treatment)): 135.3 mmHg; Systolic Blood Pressure max (Week 12 (end of treatment)): 145 mmHg; Systolic Blood Pressure min (Week 12 (end of treatment)): 88 mmHg; Diastolic Blood Pressure Mean difference [1]: −3.50 (−14.77, 7.77) mmHg; Systolic Blood Pressure Mean difference [1]: −1.77 (−14.87, 11.34) mmHg; Diastolic Blood Pressure, Change from Baseline, Mean difference (Week 12, interval in brackets): −7.50 (−13.65, −1.35); Systolic Blood Pressure, Change from Baseline, Mean difference (Week 12, interval in brackets): −8.40 (−16.80, −0.00); Change in DBP from baseline to 12 weeks Mean (SD) (Week 12 v/s Baseline): 10 −10.5 (6.44) mmHg; Change in DBP from baseline to 12 weeks Q1 (Week 12 v/s Baseline): −16.7 mmHg; Change in DBP from baseline to 12 weeks Q2 (Week 12 v/s Baseline): −9.3 mmHg; Change in DBP from baseline to 12 weeks Q3 (Week 12 v/s Baseline): −4.3 mmHg; Change in DBP from baseline to 12 weeks max (Week 12 v/s Baseline): −3 mmHg; Change in DBP from baseline to 12 weeks min (Week 12 v/s Baseline): −22 mmHg; Change in SBP from baseline to 12 weeks Mean (SD) (Week 12 v/s Baseline): 10 −10.9 (10.07) mmHg; Change in SBP from baseline to 12 weeks Q1 (Week 12 v/s Baseline): −17.0 mmHg; Change in SBP from baseline to 12 weeks Q2 (Week 12 v/s Baseline): −12.8 mmHg; Change in SBP from baseline to 12 weeks Q3 (Week 12 v/s Baseline): −4.0 mmHg; Change in SBP from baseline to 12 weeks max (Week 12 v/s Baseline): 5 mmHg; Change in SBP from baseline to 12 weeks min (Week 12 v/s Baseline): −30 mmHg; Diastolic Blood Pressure, Change from Baseline, Mean (SD) (Week 16): 9 −3.9 (4.82); Diastolic Blood Pressure, Change from Baseline, Q1 (Week 16): −7.7; Diastolic Blood Pressure, Change from Baseline, Q2 (Week 16): −2.7; Diastolic Blood Pressure, Change from Baseline, Q3 (Week 16): −0.7; Diastolic Blood Pressure, Change from Baseline, max (Week 16): 4; Diastolic Blood Pressure, Change from Baseline, min (Week 16): −11; Systolic Blood Pressure, Change from Baseline, Mean (SD) (Week 16): 9 −2.3 (5.95); Systolic Blood Pressure, Change from Baseline, Q1 (Week 16): −6.3; Systolic Blood Pressure, Change from Baseline, Q2 (Week 16): −3.3; Systolic Blood Pressure, Change from Baseline, Q3 (Week 16): 2.3; Systolic Blood Pressure, Change from Baseline, max (Week 16): 6; Systolic Blood Pressure, Change from Baseline, min (Week 16): −11; Diastolic Blood Pressure Mean (SD) [2]: 9 82.0 (11.14) mmHg; Diastolic Blood Pressure Q1 [2]: 73.3 mmHg; Diastolic Blood Pressure Q2 [2]: 82.3 mmHg; Diastolic Blood Pressure Q3 [2]: 87.3 mmHg; Diastolic Blood Pressure min [2]: 70 mmHg; Systolic Blood Pressure Mean (SD) [2]: 9 129.6 (15.12) mmHg; Systolic Blood Pressure Q1 [2]: 119.7 mmHg; Systolic Blood Pressure Q2 [2]: 129.3 mmHg; Systolic Blood Pressure Q3 [2]: 136.7 mmHg; Systolic Blood Pressure max [2]: 159 mmHg; Diastolic Blood Pressure Mean difference [3]: 0.97 (−7.91, 9.85) mmHg; Systolic Blood Pressure Mean difference [3]: 8.19 (−2.91, 19.28) mmHg; Diastolic Blood Pressure, Change from Baseline, Mean difference (Week 16, interval in brackets): −3.93 (−9.96, 2.11); Systolic Blood Pressure, Change from Baseline, Mean difference (Week 16, interval in brackets): 0.10 (−6.97, 7.17); Diastolic Blood Pressure # Mean difference [4]: −3.57 (−11.29, 4.16) mmHg; Systolic Blood Pressure # Mean difference [4]: −1.68 (−12.28, 8.92) mmHg
